Results: ChEMBL document CHEMBL1143533, “A short, stereoselective, and common approach for the synthesis of 4,5-disubstituted delta-lactones simplactone B and its C-5 analogue” (Bioorg Med Chem Lett, 2005)

Test: Inhibitory concentration against human breast cancer cell line (HBL-100) by MTT method
Format: functional, cell-based
Settings: Cancer cell lines

## CCCCCCCCCCCCCC[C@@H]1COC(=O)C[C@H]1O
  IC50: 176 nM
